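Growth conditions: 96-well plates. Treatment: test compound, 48 hours, 5 concentrations. Analysis: linear interpolation between bracketing concentrations; unreached endpoints set to highest concentration. GI50: concentration for 50% inhibition of growth.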 The source made the active and inactive calls. Cut-off read from the data, not from the text of the source: active = GI50 up to about 1.1 µM and inactive = higher.
Legend:
Assay in all cases: growth of human tumour cells (NCI), 48 h
NCI-H460 = test system: NCI-H460
SW-620 = test system: SW-620
HT-29 = test system: HT-29
U-251 = test system: U-251
MDA-MB-231 = test system: MDA-MB-231
IGROV-1 = test system: IGROV-1
RPMI-8226 = test system: RPMI-8226
RXF 393 = test system: RXF 393
SF-295 = test system: SF-295
UACC-257 = test system: UACC-257
M14 = test system: M14
SF-268 = test system: SF-268
HOP-62 = test system: HOP-62
SN12C = test system: SN12C
OVCAR-4 = test system: OVCAR-4
BT-549 = test system: BT-549
KM12 = test system: KM12
T47D = test system: T47D
SK-MEL-2 = test system: SK-MEL-2
SNB-19 = test system: SNB-19

Measured: GI50

COc1nc2c(c(=O)n1C)N(C(C)=O)C1C(N2)OCC(OC(C)=O)C1OC(C)=O (stereo not given)
inactive: NCI-H460 > 10 µM | SW-620 > 10 µM | HT-29 > 10 µM | U-251 > 10 µM | MDA-MB-231 > 10 µM | IGROV-1 > 10 µM | RPMI-8226 > 10 µM | RXF 393 > 10 µM | SF-295 > 10 µM | UACC-257 > 10 µM | M14 > 10 µM | SF-268 > 10 µM | HOP-62 > 10 µM | SN12C > 10 µM | OVCAR-4 > 10 µM | BT-549 > 10 µM | KM12 > 10 µM | T47D > 10 µM | SK-MEL-2 > 10 µM | SNB-19 > 10 µM

CCOC(=O)c1cccc(/N=N/c2ncc(/C=C/C(=O)OC)[nH]2)c1
inactive: NCI-H460 14.3 µM | SW-620 26.5 µM | HT-29 23.5 µM | U-251 22.6 µM | MDA-MB-231 36.7 µM | IGROV-1 20.6 µM | RPMI-8226 16.3 µM | RXF 393 29.9 µM | SF-295 20.4 µM | UACC-257 16.2 µM | M14 26 µM | SF-268 26.8 µM | HOP-62 16.3 µM | SN12C 7.03 µM | OVCAR-4 17.9 µM | BT-549 34.8 µM | KM12 23.2 µM | T47D 29.3 µM | SK-MEL-2 27.4 µM | SNB-19 34.4 µM

CSC1(SC)CCCCCCCCCCC1
inactive: NCI-H460 29.8 µM | SW-620 44.6 µM | HT-29 31.7 µM | U-251 32.4 µM | MDA-MB-231 41.4 µM | IGROV-1 41.8 µM | RPMI-8226 78.5 µM | RXF 393 25 µM | SF-295 37.3 µM | UACC-257 27.5 µM | M14 47.5 µM | SF-268 53.7 µM | HOP-62 49.7 µM | SN12C 70 µM | OVCAR-4 49.4 µM | BT-549 60.3 µM | KM12 41.7 µM | T47D 25 µM | SK-MEL-2 24 µM | SNB-19 53.5 µM

CC(=O)OC1COC(n2nc(N)nc2C)C(OC(C)=O)C1OC(C)=O (stereo not given)
inactive: NCI-H460 > 100 µM | SW-620 > 100 µM | HT-29 > 100 µM | U-251 > 100 µM | MDA-MB-231 > 100 µM | IGROV-1 > 100 µM | RPMI-8226 > 100 µM | RXF 393 > 100 µM | SF-295 > 100 µM | UACC-257 > 100 µM | M14 > 100 µM | SF-268 > 100 µM | HOP-62 > 100 µM | SN12C > 100 µM | OVCAR-4 > 100 µM | BT-549 > 100 µM | KM12 > 100 µM | T47D > 100 µM | SK-MEL-2 > 100 µM | SNB-19 > 100 µM

C/C(=N/c1[nH]c(=O)cc2c1C(=O)CC2)N(C)C
inactive: NCI-H460 > 200 µM | SW-620 > 200 µM | HT-29 > 200 µM | U-251 > 200 µM | MDA-MB-231 > 200 µM | IGROV-1 > 200 µM | RPMI-8226 > 200 µM | RXF 393 > 200 µM | SF-295 > 200 µM | UACC-257 > 200 µM | M14 > 200 µM | SF-268 > 200 µM | HOP-62 > 200 µM | SN12C > 200 µM | OVCAR-4 > 200 µM | BT-549 > 200 µM | KM12 > 200 µM | T47D > 200 µM | SK-MEL-2 > 200 µM | SNB-19 > 200 µM

CC(C)(C)c1c2c(c(C(C)(C)C)c3c1OCN(Cc1ccccc1)C3)OCN(Cc1ccccc1)C2
inactive: NCI-H460 15.1 µM | SW-620 24.5 µM | HT-29 16.7 µM | U-251 14.8 µM | MDA-MB-231 15.5 µM | IGROV-1 21 µM | RPMI-8226 8.69 µM | RXF 393 14.7 µM | SF-295 15.2 µM | UACC-257 12.8 µM | M14 14.2 µM | SF-268 16.2 µM | HOP-62 18.9 µM | SN12C 15.4 µM | OVCAR-4 44.7 µM | BT-549 16.9 µM | KM12 21.3 µM | T47D 31.7 µM | SK-MEL-2 16.6 µM | SNB-19 11 µM

Cc1csc2nc3c(cnn3C)c(=S)n12
inactive: NCI-H460 > 100 µM | SW-620 > 100 µM | HT-29 84.5 µM | U-251 95.3 µM | MDA-MB-231 > 10 µM | IGROV-1 > 100 µM | RPMI-8226 > 100 µM | RXF 393 35.1 µM | SF-295 > 100 µM | UACC-257 > 100 µM | M14 > 100 µM | SF-268 > 100 µM | HOP-62 50 µM | SN12C 24.2 µM | OVCAR-4 > 100 µM | BT-549 39.5 µM | KM12 > 100 µM | T47D > 10 µM | SK-MEL-2 41.9 µM | SNB-19 > 100 µM

NC1=CN(Cc2ccccc2)C2=N/C(=C\c3ccccc3)C(=O)N12
inactive: NCI-H460 > 100 µM | SW-620 > 100 µM | HT-29 > 100 µM | U-251 > 100 µM | MDA-MB-231 > 100 µM | IGROV-1 > 100 µM | RPMI-8226 71.3 µM | RXF 393 > 100 µM | SF-295 > 100 µM | UACC-257 40.1 µM | M14 > 100 µM | SF-268 > 100 µM | HOP-62 > 100 µM | SN12C > 100 µM | OVCAR-4 38.2 µM | BT-549 > 100 µM | KM12 96.8 µM | T47D > 100 µM | SK-MEL-2 > 100 µM | SNB-19 > 100 µM
